Measured values taken from patent US20230172936A1, “VCP/p97 INHIBITOR FOR THE TREATMENT OF CANCER” (Cleave Therapeutics, Inc., priority 2020, published 2023).

How the values were obtained:
Assay type in all cases: cell-based
CTG-2227 = experiment: Ex-vivo cytotoxicity by Cell Titer Glo; conditions: Homo sapiens, 144 h; CTG-2227, 6 days
Procedure: (§1) Acute myelogenous leukemia (AML) is the most common acute leukemia in adults. A hematologic cancer, the disease is highly heterogeneous, with multiple subtypes. About 30% of AML cases harbor a FLT3/ITD mutation making the disease highly proliferative and more aggressive with a high risk of relapse.
(§2) Triplicate wells with media only and duplicate wells of vehicle (0.2% DMSO) were used as negative controls. […] To measure proliferation, untreated cells at days 0 and 6 were evaluated via Cell Titer Glo.
(§3) Protocol: • 1. AML cells were thawed and resuspended in enriched media composed of StemSpan™ Serum-Free Expansion Media (SFEM), 2% heat-inactivated FBS, StemSpan™ CC110 and recombinant human IL-3. • 2. 20,000 cells/well in 100 μL volume were plated on study day 0. • 3. […] Cells were incubated in the presence of drug for 6 days. • 5. On day 6, plates were removed from the incubator and equilibrated to room temperature for 20 minutes. 100 μL/well Cell Titer Glo was added to each well and incubated for 10 minutes before plate reading. • 6. Luminescence was recorded using Tecan Infinite M Plex plate reader.

CTG-2228 = experiment: Ex-vivo cytotoxicity by Cell Titer Glo; conditions: Homo sapiens, 144 h; CTG-2228, 6 days
Procedure: as §1, §2, §3

CTG-2229 = experiment: Ex-vivo cytotoxicity by Cell Titer Glo; conditions: Homo sapiens, 144 h; CTG-2229, 6 days
Procedure: as §1, §2, §3

CTG-2232 = experiment: Ex-vivo cytotoxicity by Cell Titer Glo; conditions: Homo sapiens, 144 h; CTG-2232, 6 days
Procedure: as §1, §2, §3

CTG-2233 = experiment: Ex-vivo cytotoxicity by Cell Titer Glo; conditions: Homo sapiens, 144 h; CTG-2233, 6 days
Procedure: as §1, §2, §3

CTG-2234 = experiment: Ex-vivo cytotoxicity by Cell Titer Glo; conditions: Homo sapiens, 144 h; CTG-2234, 6 days
Procedure: as §1, §2, §3

CTG-2235 = experiment: Ex-vivo cytotoxicity by Cell Titer Glo; conditions: Homo sapiens, 144 h; CTG-2235, 6 days
Procedure: as §1, §2, §3

CTG-2236 = experiment: Ex-vivo cytotoxicity by Cell Titer Glo; conditions: Homo sapiens, 144 h; CTG-2236, 6 days
Procedure: as §1, §2, §3

CTG-2238 = experiment: Ex-vivo cytotoxicity by Cell Titer Glo; conditions: Homo sapiens, 144 h; CTG-2238, 6 days
Procedure: as §1, §2, §3

CTG-2239 = experiment: Ex-vivo cytotoxicity by Cell Titer Glo; conditions: Homo sapiens, 144 h; CTG-2239, 6 days
Procedure: as §1, §2, §3

CTG-2240 = experiment: Ex-vivo cytotoxicity by Cell Titer Glo; conditions: Homo sapiens, 144 h; CTG-2240, 6 days
Procedure: as §1, §2, §3

CTG-2242 = experiment: Ex-vivo cytotoxicity by Cell Titer Glo; conditions: Homo sapiens, 144 h; CTG-2242, 6 days
Procedure: as §1, §2, §3

CTG-2243 = experiment: Ex-vivo cytotoxicity by Cell Titer Glo; conditions: Homo sapiens, 144 h; CTG-2243, 6 days
Procedure: as §1, §2, §3

CTG-2452 = experiment: Ex-vivo cytotoxicity by Cell Titer Glo; conditions: Homo sapiens, 144 h; CTG-2452, 6 days
Procedure: as §1, §2, §3

CTG-2453 = experiment: Ex-vivo cytotoxicity by Cell Titer Glo; conditions: Homo sapiens, 144 h; CTG-2453, 6 days
Procedure: as §1, §2, §3

CTG-2454 = experiment: Ex-vivo cytotoxicity by Cell Titer Glo; conditions: Homo sapiens, 144 h; CTG-2454, 6 days
Procedure: as §1, §2, §3

CTG-2455 = experiment: Ex-vivo cytotoxicity by Cell Titer Glo; conditions: Homo sapiens, 144 h; CTG-2455, 6 days
Procedure: as §1, §2, §3

CTG-2456 = experiment: Ex-vivo cytotoxicity by Cell Titer Glo; conditions: Homo sapiens, 144 h; CTG-2456, 6 days
Procedure: as §1, §2, §3

CTG-2457 = experiment: Ex-vivo cytotoxicity by Cell Titer Glo; conditions: Homo sapiens, 144 h; CTG-2457, 6 days
Procedure: as §1, §2, §3

CTG-2502 = experiment: Ex-vivo cytotoxicity by Cell Titer Glo; conditions: Homo sapiens, 144 h; CTG-2502, 6 days
Procedure: as §1, §2, §3

CTG-2700 = experiment: Ex-vivo cytotoxicity by Cell Titer Glo; conditions: Homo sapiens, 144 h; CTG-2700, 6 days
Procedure: as §1, §2, §3

CTG-2701 = experiment: Ex-vivo cytotoxicity by Cell Titer Glo; conditions: Homo sapiens, 144 h; CTG-2701, 6 days
Procedure: as §1, §2, §3

CTG-2702 = experiment: Ex-vivo cytotoxicity by Cell Titer Glo; conditions: Homo sapiens, 144 h; CTG-2702, 6 days
Procedure: as §1, §2, §3

CTG-2704 = experiment: Ex-vivo cytotoxicity by Cell Titer Glo; conditions: Homo sapiens, 144 h; CTG-2704, 6 days
Procedure: as §1, §2, §3

CTG-2774 = experiment: Ex-vivo cytotoxicity by Cell Titer Glo; conditions: Homo sapiens, 144 h; CTG-2774, 6 days
Procedure: as §1, §2, §3

CTG-2775 = experiment: Ex-vivo cytotoxicity by Cell Titer Glo; conditions: Homo sapiens, 144 h; CTG-2775, 6 days
Procedure: as §1, §2, §3

CTG-2901 = experiment: Ex-vivo cytotoxicity by Cell Titer Glo; conditions: Homo sapiens, 144 h; CTG-2901, 6 days
Procedure: as §1, §2, §3

CTG-3438 = experiment: Ex-vivo cytotoxicity by Cell Titer Glo; conditions: Homo sapiens, 144 h; CTG-3438, 6 days
Procedure: as §1, §2, §3

CTG-3439 = experiment: Ex-vivo cytotoxicity by Cell Titer Glo; conditions: Homo sapiens, 144 h; CTG-3439, 6 days
Procedure: as §1, §2, §3

CTG-3440 = experiment: Ex-vivo cytotoxicity by Cell Titer Glo; conditions: Homo sapiens, 144 h; CTG-3440, 6 days
Procedure: as §1, §2, §3

MV-411 cell line = experiment: Cytotoxicity by Cell Titer Glo; conditions: Homo sapiens, MV4-11, 144 h, 6 days
Procedure: as §1, §2, §3

SMILES: Cc1cc2c(C(N)=O)cccc2n1-c1nc2c(c(NCc3ccccc3)n1)CCCN2 [Compound 1, 1-(4-(Benzylamino)-5,6,7,8-tetrahydropyrido[2,3-d]pyrimidin-2-yl)-2-methyl-1H-indole-4-carboxamide]
- IC50 (CTG-2227): 274 nM
- IC50 (CTG-2228): 568 nM
- IC50 (CTG-2229): 752 nM
- IC50 (CTG-2232): 275 nM
- IC50 (CTG-2233): 412 nM
- IC50 (CTG-2234): 485 nM
- IC50 (CTG-2235): 362 nM
- IC50 (CTG-2236): 527 nM
- IC50 (CTG-2238): 237 nM
- IC50 (CTG-2239): 395 nM
- IC50 (CTG-2240): 500 nM
- IC50 (CTG-2242): 501 nM
- IC50 (CTG-2243): 460 nM
- IC50 (CTG-2452): 512 nM
- IC50 (CTG-2453): 307 nM
- IC50 (CTG-2454): 208 nM
- IC50 (CTG-2455): 220 nM
- IC50 (CTG-2456): 212 nM
- IC50 (CTG-2457): 627 nM
- IC50 (CTG-2502): 480 nM
- IC50 (CTG-2700): 386 nM
- IC50 (CTG-2701): 395 nM
- IC50 (CTG-2702): 427 nM
- IC50 (CTG-2704): 666 nM
- IC50 (CTG-2774): 327 nM
- IC50 (CTG-2775): 437 nM
- IC50 (CTG-2901): 446 nM
- IC50 (CTG-3438): 263 nM
- IC50 (CTG-3439): 691 nM
- IC50 (CTG-3440): 332 nM
- IC50 (MV-411 cell line): 262 nM
